Measurements from paper PMC5218480 (PLoS ONE, 2017).

Tested on: MV-4-11 cells
Experiment: Gene expression microarray analysis (Affymetrix PrimeView) and GSEA
Type: cell-based, human
Design: RFU PODN (11730768_x_at) / Fold change /veh PODN (11730768_x_at) / RFU LINC00158 (11744669_a_at) / Fold change /veh LINC00158 (11744669_a_at) / RFU DUSP10 (11751237_a_at) / Fold change /veh DUSP10 (11751237_a_at) / RFU ID3 (11757404_x_at) / Fold change /veh ID3 (11757404_x_at) / RFU PLEKHG5 (11737974_s_at) / Fold change /veh PLEKHG5 (11737974_s_at) / RFU LRRC4B (11730491_at) / Fold change /veh LRRC4B (11730491_at) / RFU GIMAP4 (11747438_a_at) / Fold change /veh GIMAP4 (11747438_a_at) / RFU KRT8 (11758183_x_at) / Fold change /veh KRT8 (11758183_x_at) / RFU CNN1 (11734310_a_at) / Fold change /veh CNN1 (11734310_a_at) / RFU VPS37D (11726825_at) / Fold change /veh VPS37D (11726825_at) / RFU C10orf10 (11716522_x_at) / Fold change /veh C10orf10 (11716522_x_at) / RFU KIR2DL2 /// KIR2DL4 /// KIR2DL5A /// KIR2DL5B /// KIR2DS1 /// KIR2DS2 /// KIR2DS3 /// KIR2DS4 /// KIR3DL3 /// KIR3DL3 /// KIR3DS1 (11738374_at) / Fold change /veh KIR2DL2 /// KIR2DL4 /// KIR2DL5A /// KIR2DL5B /// KIR2DS1 /// KIR2DS2 /// KIR2DS3 /// KIR2DS4 /// KIR3DL3 /// KIR3DL3 /// KIR3DS1 (11738374_at) / RFU C1QL1 (11718748_at) / Fold change /veh C1QL1 (11718748_at) / RFU TMPRSS4 (11747572_a_at) / Fold change /veh TMPRSS4 (11747572_a_at) / RFU HAMP (11756126_x_at) / Fold change /veh HAMP (11756126_x_at) / RFU RNFT2 (11725882_a_at) / Fold change /veh RNFT2 (11725882_a_at) / RFU NR4A2 (11747474_a_at) / Fold change /veh NR4A2 (11747474_a_at) / RFU ABCC12 (11746883_a_at) / Fold change /veh ABCC12 (11746883_a_at) / RFU TMEM136 (11760407_x_at) / Fold change /veh TMEM136 (11760407_x_at) / RFU CLDN22 /// WWC2 (11732394_at) / Fold change /veh CLDN22 /// WWC2 (11732394_at) / RFU HLA-DPB1 (11760878_x_at) / Fold change /veh HLA-DPB1 (11760878_x_at) / RFU SPINT1 (11716480_a_at) / Fold change /veh SPINT1 (11716480_a_at) / RFU GAP43 (11754022_s_at) / Fold change /veh GAP43 (11754022_s_at) / RFU A4GNT (11735810_at) / Fold change /veh A4GNT (11735810_at) / RFU PRB3 (11715151_x_at) / Fold change /veh PRB3 (11715151_x_at) / RFU TUBB4B (11761932_at) / Fold change /veh TUBB4B (11761932_at) / RFU CAPN14 (11732068_a_at) / Fold change /veh CAPN14 (11732068_a_at) / RFU TMCC2 (11721928_a_at) / Fold change /veh TMCC2 (11721928_a_at) / RFU IRGQ (11745062_a_at) / Fold change /veh IRGQ (11745062_a_at) / RFU FAM174B (11720279_a_at) / Fold change /veh FAM174B (11720279_a_at) / RFU TMPRSS4 (11748680_a_at) / Fold change /veh TMPRSS4 (11748680_a_at) / RFU FAM212B (11763350_a_at) / Fold change /veh FAM212B (11763350_a_at) / RFU PLEKHG5 (11743358_a_at) / Fold change /veh PLEKHG5 (11743358_a_at) / RFU ZSCAN30 (11745921_a_at) / Fold change /veh ZSCAN30 (11745921_a_at) / RFU CMKLR1 (11741424_a_at) / Fold change /veh CMKLR1 (11741424_a_at) / RFU LOC101060620 /// MAPK8IP1 (11723275_at) / Fold change /veh LOC101060620 /// MAPK8IP1 (11723275_at) / RFU SPTSSB (11747773_x_at) / Fold change /veh SPTSSB (11747773_x_at) / RFU PRSS12 (11739890_at) / Fold change /veh PRSS12 (11739890_at) / RFU BIN1 (11741810_x_at) / Fold change /veh BIN1 (11741810_x_at) / RFU WNT11 (11732464_a_at) / Fold change /veh WNT11 (11732464_a_at) / RFU C10orf10 (11716521_a_at) / Fold change /veh C10orf10 (11716521_a_at) / RFU C5orf56 (11738089_at) / Fold change /veh C5orf56 (11738089_at) / RFU CYB561 (11721691_x_at) / Fold change /veh CYB561 (11721691_x_at) / RFU ANKRD19P (11752326_a_at) / Fold change /veh ANKRD19P (11752326_a_at) / RFU OR2T12 /// OR2T33 /// OR2T8 (11738714_s_at) / Fold change /veh OR2T12 /// OR2T33 /// OR2T8 (11738714_s_at) / RFU VCAN (11748164_a_at) / Fold change /veh VCAN (11748164_a_at) / RFU JSRP1 (11732532_at) / Fold change /veh JSRP1 (11732532_at) / RFU KRTAP10-11 (11738290_x_at) / Fold change /veh KRTAP10-11 (11738290_x_at) / RFU MYO3A (11730013_a_at) / Fold change /veh MYO3A (11730013_a_at) / RFU EBF3 (11725865_a_at) / Fold change /veh EBF3 (11725865_a_at) / RFU CAMK2N1 (11719241_x_at) / Fold change /veh CAMK2N1 (11719241_x_at) / RFU C5orf56 (11738088_a_at) / Fold change /veh C5orf56 (11738088_a_at) / RFU OLFML3 (11715873_a_at) / Fold change /veh OLFML3 (11715873_a_at) / RFU LOC100653217 /// NTM (11731650_a_at) / Fold change /veh LOC100653217 /// NTM (11731650_a_at) / RFU MAPK11 (11762145_a_at) / Fold change /veh MAPK11 (11762145_a_at) / RFU FIZ1 (11724087_x_at) / Fold change /veh FIZ1 (11724087_x_at) / RFU OASL (11726364_x_at) / Fold change /veh OASL (11726364_x_at) / RFU SOX15 (11748057_x_at) / Fold change /veh SOX15 (11748057_x_at) / RFU CD79A (11719716_a_at) / Fold change /veh CD79A (11719716_a_at) / RFU HIST1H1D (11736915_at) / Fold change /veh HIST1H1D (11736915_at) / RFU CASKIN2 (11723855_a_at) / Fold change /veh CASKIN2 (11723855_a_at) / RFU LOC730098 (11760151_x_at) / Fold change /veh LOC730098 (11760151_x_at) / RFU OR4N2 (11742367_at) / Fold change /veh OR4N2 (11742367_at) / RFU PRRT2 (11749266_a_at) / Fold change /veh PRRT2 (11749266_a_at) / RFU SNX32 (11753110_a_at) / Fold change /veh SNX32 (11753110_a_at) / RFU CDHR5 (11726645_a_at) / Fold change /veh CDHR5 (11726645_a_at) / RFU RCAN1 (11760418_a_at) / Fold change /veh RCAN1 (11760418_a_at) / RFU FAM167A (11723789_a_at) / Fold change /veh FAM167A (11723789_a_at) / RFU FAM26E (11764081_at) / Fold change /veh FAM26E (11764081_at) / RFU ISYNA1 (11749810_s_at) / Fold change /veh ISYNA1 (11749810_s_at) / RFU ACY1 (11761880_at) / Fold change /veh ACY1 (11761880_at) / RFU 11764098_at / Fold change /veh 11764098_at / RFU SAMD14 (11745864_x_at) / Fold change /veh SAMD14 (11745864_x_at) / RFU NPB (11741838_a_at) / Fold change /veh NPB (11741838_a_at) / RFU TMPRSS6 (11731388_a_at) / Fold change /veh TMPRSS6 (11731388_a_at) / RFU KRTAP10-2 (11738614_at) / Fold change /veh KRTAP10-2 (11738614_at) / RFU ARHGAP8 /// PRR5-ARHGAP8 (11727945_x_at) / Fold change /veh ARHGAP8 /// PRR5-ARHGAP8 (11727945_x_at) / RFU KRTAP5-7 /// NADSYN1 (11734609_at) / Fold change /veh KRTAP5-7 /// NADSYN1 (11734609_at) / RFU RASL12 (11751679_a_at) / Fold change /veh RASL12 (11751679_a_at) / RFU CDKN2B (11736163_a_at) / Fold change /veh CDKN2B (11736163_a_at) / RFU PRF1 (11729649_at) / Fold change /veh PRF1 (11729649_at) / RFU, ZNF638 /// ZNF638-IT1 / Fold change vs veh, ZNF638 /// ZNF638-IT1 / RFU, PANK3 / Fold change vs veh, PANK3 / RFU, SH3YL1 / Fold change vs veh, SH3YL1 / RFU, ZEB2 / Fold change vs veh, ZEB2 / RFU, NRIP1 / Fold change vs veh, NRIP1 / RFU, PTTG1IP / Fold change vs veh, PTTG1IP / RFU, CAPN2 / Fold change vs veh, CAPN2 / RFU, MED14 / Fold change vs veh, MED14 / RFU, SNORA58 / Fold change vs veh, SNORA58 / RFU, C1orf63 / Fold change vs veh, C1orf63 / RFU, LRRFIP1 / Fold change vs veh, LRRFIP1 / RFU, NDUFAF7 / Fold change vs veh, NDUFAF7 / RFU, SLC12A2 / Fold change vs veh, SLC12A2 / RFU, IBTK / Fold change vs veh, IBTK / RFU, ESF1 / Fold change vs veh, ESF1 / Fold change vs veh, TMEM50B / RFU, TAOK1 / Fold change vs veh, TAOK1 / RFU, ACBD3 / Fold change vs veh, ACBD3 / RFU, TMA16 / Fold change vs veh, TMA16 / RFU, RWDD3 / Fold change vs veh, RWDD3 / RFU, BCAT1 / Fold change vs veh, BCAT1 / RFU, EDEM3 / Fold change vs veh, EDEM3 / RFU, TMEM33 / Fold change vs veh, TMEM33 / RFU, WDR75 / Fold change vs veh, WDR75 / RFU, AHCTF1 / Fold change vs veh, AHCTF1 / RFU, TFRC / Fold change vs veh, TFRC / RFU, ZDHHC17 / Fold change vs veh, ZDHHC17 / RFU, NOM1 / Fold change vs veh, NOM1 / RFU, ARL8B / Fold change vs veh, ARL8B / RFU, ZBTB11 / Fold change vs veh, ZBTB11 / RFU, TAMM41 / Fold change vs veh, TAMM41 / RFU, KIAA1704 /// LOC100996395 / Fold change vs veh, KIAA1704 /// LOC100996395 / RFU, ING1 / Fold change vs veh, ING1 / RFU, TRMT61B / Fold change vs veh, TRMT61B / RFU, FUBP3 / Fold change vs veh, FUBP3 / RFU, TP53 / Fold change vs veh, TP53 / RFU, TNKS2 / Fold change vs veh, TNKS2 / RFU, ZFP14 / Fold change vs veh, ZFP14 / RFU, ACTR2 / Fold change vs veh, ACTR2 / RFU, PPP3R1 / Fold change vs veh, PPP3R1 / RFU, PIK3R1 / Fold change vs veh, PIK3R1 / RFU, HNRNPA1 / Fold change vs veh, HNRNPA1 / RFU, RNF170 / Fold change vs veh, RNF170 / RFU, ZNF28 / Fold change vs veh, ZNF28 / RFU, RNGTT / Fold change vs veh, RNGTT / RFU, OGT / Fold change vs veh, OGT / RFU, BRD1 / Fold change vs veh, BRD1 / RFU, MARS / Fold change vs veh, MARS / RFU, ZNF655 / Fold change vs veh, ZNF655 / RFU, FAHD1 / Fold change vs veh, FAHD1 / RFU, BDP1 / Fold change vs veh, BDP1 / RFU, LRRCC1 / Fold change vs veh, LRRCC1 / RFU, ARID1A / Fold change vs veh, ARID1A / RFU, ZNF146 / Fold change vs veh, ZNF146 / RFU, ZNF330 / Fold change vs veh, ZNF330 / RFU, GPN3 / Fold change vs veh, GPN3 / RFU, C9orf123 / Fold change vs veh, C9orf123 / RFU, N4BP2L2 / Fold change vs veh, N4BP2L2 / RFU, ARFIP1 / Fold change vs veh, ARFIP1 / RFU, FAM179B / Fold change vs veh, FAM179B / RFU, BCL10 / Fold change vs veh, BCL10 / RFU, UHRF1BP1L / Fold change vs veh, UHRF1BP1L / RFU, BET1 / Fold change vs veh, BET1 / RFU, CNOT2 / Fold change vs veh, CNOT2 / RFU, ZNF268 / Fold change vs veh, ZNF268 / Fold change vs veh, ZNF507 / RFU, DGCR2 / Fold change vs veh, DGCR2 / RFU, WDSUB1 / Fold change vs veh, WDSUB1 / Fold change vs veh, HSP90B1 /// MIR3652 / RFU, ADSS / Fold change vs veh, ADSS / RFU, GK / Fold change vs veh, GK / RFU, ZNF148 / Fold change vs veh, ZNF148 / RFU, TAF9 / Fold change vs veh, TAF9 / RFU, SLC1A5 / Fold change vs veh, SLC1A5 / RFU, SLMO2 / Fold change vs veh, SLMO2 / RFU, ABCC4 / Fold change vs veh, ABCC4 / RFU, LOC101060439 /// RAP1B / Fold change vs veh, LOC101060439 /// RAP1B / RFU, RFX7 / Fold change vs veh, RFX7 / RFU, GTPBP10 / Fold change vs veh, GTPBP10 / RFU, CNEP1R1 / Fold change vs veh, CNEP1R1 / RFU, BIVM-ERCC5 /// ERCC5 / Fold change vs veh, BIVM-ERCC5 /// ERCC5 / RFU, ILF3 / Fold change vs veh, ILF3 / RFU 11762660_at / Fold change /veh 11762660_at / RFU VCAN (11757783_s_at) / Fold change /veh VCAN (11757783_s_at) / RFU DDX43 (11728927_at) / Fold change /veh DDX43 (11728927_at) / RFU KRT8 (11758188_x_at) / Fold change /veh KRT8 (11758188_x_at) / RFU NKD1 (11759106_at) / Fold change /veh NKD1 (11759106_at) / RFU SRD5A1 (11742802_a_at) / Fold change /veh SRD5A1 (11742802_a_at) / RFU TPSAB1 /// TPSB2 (11721975_s_at) / Fold change /veh TPSAB1 /// TPSB2 (11721975_s_at) / RFU GSTM3 (11746129_a_at) / Fold change /veh GSTM3 (11746129_a_at) / RFU IL23R (11737362_x_at) / Fold change /veh IL23R (11737362_x_at) / RFU TMEM51 (11727254_a_at) / Fold change /veh TMEM51 (11727254_a_at) / RFU PIWIL2 (11732686_x_at) / Fold change /veh PIWIL2 (11732686_x_at) / RFU ORM1 (11744905_x_at) / Fold change /veh ORM1 (11744905_x_at) / RFU CCDC152 (11743942_at) / Fold change /veh CCDC152 (11743942_at) / RFU ECM1 (11717891_a_at) / Fold change /veh ECM1 (11717891_a_at) / RFU IL23R (11748794_a_at) / Fold change /veh IL23R (11748794_a_at) / RFU TNFAIP8L3 (11732012_x_at) / Fold change /veh TNFAIP8L3 (11732012_x_at) / RFU MBOAT4 (11741988_at) / Fold change /veh MBOAT4 (11741988_at) / RFU 11764193_at / Fold change /veh 11764193_at / RFU TMEM53 (11763286_at) / Fold change /veh TMEM53 (11763286_at) / RFU MAGEB2 (11727129_at) / Fold change /veh MAGEB2 (11727129_at) / RFU TMEM200A (11744735_a_at) / Fold change /veh TMEM200A (11744735_a_at) / RFU CCDC152 (11751479_a_at) / Fold change /veh CCDC152 (11751479_a_at) / RFU FAM211A (11726209_a_at) / Fold change /veh FAM211A (11726209_a_at) / RFU RGS16 (11746705_a_at) / Fold change /veh RGS16 (11746705_a_at) / RFU VCAN (11755009_s_at) / Fold change /veh VCAN (11755009_s_at) / RFU RHOB (11743442_s_at) / Fold change /veh RHOB (11743442_s_at) / RFU RGS16 (11720943_a_at) / Fold change /veh RGS16 (11720943_a_at) / RFU RGS16 (11720944_at) / Fold change /veh RGS16 (11720944_at) / RFU, VPS4B / Fold change vs veh, VPS4B / RFU, CREB1 / Fold change vs veh, CREB1 / RFU, DNAJC13 / Fold change vs veh, DNAJC13 / RFU, GNAQ / Fold change vs veh, GNAQ / RFU, CDK5R1 / Fold change vs veh, CDK5R1 / RFU, ZRANB3 / Fold change vs veh, ZRANB3 / RFU, CUL4A / Fold change vs veh, CUL4A / RFU, CCNY / Fold change vs veh, CCNY / RFU, UFL1 / Fold change vs veh, UFL1 / RFU, COG3 / Fold change vs veh, COG3 / RFU, DIAPH2 / Fold change vs veh, DIAPH2 / RFU, SKA2 / Fold change vs veh, SKA2 / RFU, AFF3 / Fold change vs veh, AFF3 / RFU, LMF1 / Fold change vs veh, LMF1 / RFU, IPO11 / Fold change vs veh, IPO11 / RFU, DFFB / Fold change vs veh, DFFB / RFU, FOXP1 / Fold change vs veh, FOXP1 / RFU, CARD8 / Fold change vs veh, CARD8 / RFU, STRN3 / Fold change vs veh, STRN3 / RFU, ADK / Fold change vs veh, ADK / RFU, RASSF2 / Fold change vs veh, RASSF2 / RFU, WIPF1 / Fold change vs veh, WIPF1 / RFU, LARP1B / Fold change vs veh, LARP1B / RFU, RASA1 / Fold change vs veh, RASA1 / RFU, RB1 / Fold change vs veh, RB1 / RFU, PPFIA1 / Fold change vs veh, PPFIA1 / RFU, MAT2A / Fold change vs veh, MAT2A / RFU, CCT5 / Fold change vs veh, CCT5 / RFU, WDR92 / Fold change vs veh, WDR92 / RFU, CUX1 / Fold change vs veh, CUX1 / RFU, TTC7A / Fold change vs veh, TTC7A / RFU, TMEM135 / Fold change vs veh, TMEM135 / RFU, DEPTOR / Fold change vs veh, DEPTOR / RFU, CPM / Fold change vs veh, CPM / RFU, DNAJB6 / Fold change vs veh, DNAJB6 / RFU, CACNA2D3 / Fold change vs veh, CACNA2D3 / RFU, DTX4 / Fold change vs veh, DTX4 / RFU, TFCP2 / Fold change vs veh, TFCP2 / RFU, GMCL1 /// GMCL1P1 / Fold change vs veh, GMCL1 /// GMCL1P1 / RFU, AEBP2 / Fold change vs veh, AEBP2 / RFU, SNHG1 /// SNORD22 /// SNORD25 /// SNORD26 /// SNORD27 /// SNORD28 /// SNORD29 /// SNORD31 / Fold change vs veh, SNHG1 /// SNORD22 /// SNORD25 /// SNORD26 /// SNORD27 /// SNORD28 /// SNORD29 /// SNORD31 / Fold change (Aza/veh), C12orf56 (ProbeSet 11735607_a_at) / Fold change (ACY-1035/veh), C12orf56 (ProbeSet 11735607_a_at) / Fold change (Aza/veh), FGFR1OP (ProbeSet 11751329_s_at) / Fold change (ACY-1035/veh), FGFR1OP (ProbeSet 11751329_s_at) / Fold change (Aza/veh), VPS36 (ProbeSet 11739960_a_at) / Fold change (ACY-1035/veh), VPS36 (ProbeSet 11739960_a_at) / RFU SYPL1 (11715823_x_at) / Fold change /veh SYPL1 (11715823_x_at) / RFU IGFBP7 (11715501_s_at) / Fold change /veh IGFBP7 (11715501_s_at) / RFU REEP3 (11722064_at) / Fold change /veh REEP3 (11722064_at) / RFU IGLL1 (11728026_x_at) / Fold change /veh IGLL1 (11728026_x_at): dose or concentration left out as unconfirmed
Details: MV-4-11 cells, 48 hours

Q: For `Nc1ncn([C@@H]2O[C@H](CO)[C@@H](O)[C@H]2O)c(=O)n1` [azacitidine], which “Fold change /veh TMEM136 (11760407_x_at)” value is on record?
A: The value was 1.19.
